Columns and labels:
[1] = system: c-fos; test: c-fos immunohistochemistry in hippocampus after CFC re-exposure; type: in vivo, mice; settings: one week prior to CFC, sacrificed one hour after re-exposure; (R,S)-ketamine 30 mg/kg, FENM 20 mg/kg; vs saline
Protocol: Immunohistochemistry was performed as previously described (46). Mice were deeply anesthetized, and brains were fixed and extracted using transcardial perfusion. For c-fos immunohistochemistry, floating sections were used. Sections were first rinsed three times in 1×PBS and then blocked in 1×PBS with 0.5% Triton X-100 and 10% NDS for 2 hours at room temperature (RT). Incubation with primary antibodies was performed at 4° C. overnight (rabbit anti-c-fos, 1:5000, SySy, Göettingen, Germany, 226 003) in 1×PBS with 0.5% Triton X-100. Sections were then washed three times in 1×PBS and incubated with secondary antibody (Alexa 647 anti-rabbit, 1:500, Thermo Fisher Scientific, Waltham, Mass. A32733) for 2 hours at RT. Sections were then washed three times in 1×PBS, mounted on slides, and coverslipped with ProLong Gold (Invitrogen, Carlsbad, Calif.).
Fluorescent confocal micrographs were captured with a Leica TCS SPE-II confocal microscope with LAS X software. Bilateral hippocampal sections were imaged throughout the rostro-caudal axis of the HPC using a 20× objective. Identification of hippocampal regions involved acquiring 6 dorsal and ventral sections per mouse brain slice at 20×. […]
An investigator blind to treatment groups used FIJI software to count c-fos^+ immunoreactive cells in the DG, CA3, and CA1 throughout the entire rostrocaudal axis of the HPC. Cells were counted bilaterally. […]

[2] = system: depressive symptoms in patients; settings: subanesthetic dose; patients; cited from earlier work

CNC1(c2ccccc2Cl)CCCCC1=O (racemic) [(R,S)-ketamine, reference compound]
c-fos expression in the ventral CA3 of the hippocampus [1]: significantly increased c-fos expression | duration of relief of depressive symptoms [2]: up to 3 weeks | time to relief of depressive symptoms after administration [2]: 2 h
